# According to US20230293644A1, “ANTI-INFLAMMATORY PEPTIDES AND COMPOSITION COMPRISING THE SAME” (Gemvax & KAEL Co., Ltd., priority 2012, published 2023):
# Legend:
# Type in all cases: cell-based, human
# TNF-α [1] = test: Screening of TNF-α level in PMA-differentiated THP-1 cell line after LPS; settings: 1 µM peptide, one hour; LPS 10 ng/ml
# Procedure: Experiment was carried out using THP-1 cell line (American Type Culture Collection (ATCC), Manassas, VA, USA) which is human acute monocytic leukemia.
# THP-1 cells were incubated to reach the number of 1 × 10^5 cells per well in a 96-well plate with RPMI 1640 medium for 24 hrs, followed by addition of 100 uM of PMA (phorbol 12-myristate 13-acetate) for the differentiation into macrophage. After differentiation of THP-1 into macrophage by PMA for a day, LPS was treated for 2 hrs and washed off. Starvation for an hour and PEP1 treatment followed.
# THP-1 cell differentiated by PMA was treated with LPS (lipopolysaccharide; 10 ng/ml, Sigma) for 2 hours, followed by 2 times washes with PBS. To the cells, OPTI-MEM culture medium was added to induce cell starvation for an hour, and 1 µM of 179 peptides was taken out and incubated for an hour. After incubation, TNF-α level was measured by using the ELISA kit and the peptides which reduce the TNF-α level were screened (FIG. 24 to FIG. 46).
# TNF-α [2] = test: Screening of TNF-α inhibitory effect, LPS-stimulated PBMC-derived monocytes (Example 2); settings: 4 uM peptide, 2 hrs, LPS 10 ng/ml; for TNF-α inhibiting effect compared to the group treated with LPS and estrogen: estrogen 20 nM
# Procedure: PBMC (peripheral blood mononuclear cells) layer was separated from blood samples (50 ml) collected in healthy subjects using Biocoll Separating Solution (Biochrom AG, Berlin, Germany). The collected PBMC were enriched in RPMI 1640 medium containing 20% human serum for 30 mins, and then transferred to 100-mm polystyeren cell culture plate coated with human serum for incubation for 2 hrs at 37° C., 5% CO^2 incubator. Monocytes were detached from the bottom of the plate using cold PBS, and incubated to reach the number of 1 × 10^5 cell/well in 96-well plate with RPMI 1640 medium (supplemented with penicillinstreptomycin; […], human serum; 20%) over night.
# ELISA was performed to find out how the peptides of the PEP RIA series influence TNF-α level. PBMC-derived monocytes were incubated to reach the number of 1 × 10^5 cells per well in a 96-well plate and then treated with LPS (lipopolysaccharide; 10 ng/ml, Sigma) for 2 hours. To the monocytes that were washed three times with PBS, OPTI-MEM culture medium was added to induce cell starvation for an hour, 4 µM of the peptide was taken out and incubated for 2 hours. There were three negative control groups. The first group was not treated with anything. The second group that was treated with estrogen (in this experiment, estradiol was used as a kind of estrogen). The third group was treated with LPS (10 ng/ml) or with LPS (10 ng/ml) as well as estrogen (20 nM). PEP1 that was confirmed to have TNF-α inhibiting activity was used as a positive control to measure TNF-α inhibiting activity. After incubation, TNF-α was measured by following the ELISA kit manual (R&D, Minneapolis, MN, USA). The details of quantification method can be found in Experiment 2.2 of Example 1.
# Using the method stated above, Peptides with TNF-α inhibiting effect were screened. PBMC-derived monocytes were stimulated with LPS (10 ng/ml), which is endotoxin, for 2 hours and were induced to starve by adding OPTI-MEM for 1 hour. After that, 4 uM of 179 peptides were treated and incubated for 2 hrs. The amount of TNF-α in the cell culture medium was measured using ELISA, and the peptides with TNF-α inhibiting effect were screened by comparing to the negative and positive controls (FIG. 3 to FIG. 23).
# TNF-α [3] = test: TNF-α ELISA, LPS-stimulated PBMC-derived monocytes (Example 1); settings: LPS 10 ng/ml 2 hrs, starved 1 hr, 4 uM for 2 hrs; cell culture medium
# Procedure: PBMC (peripheral blood mononuclear cell) was separated from the blood samples (50ml) collected from healthy subjects using Ficoll-PaqueTM PLUS (GE Healthcare Life Sciences, Piscataway, NJ, USA). PBMCs were then enriched in complete RPMI 1640 medium containing 20% of human serum, followed by transferring to 100 mm polystyrene cell culture plate coated with human serum for 30 mins. […]
# To see the effect of PEP-1 on TNF-α level in terms of protein expression level, ELISA (enzyme linked immunosorbent assay) was performed. […] After culturing, cell soup was collected, and the amount of TNF-α was measured using ELISA kit (R&D, Minneapolis, MN, USA) as follows:
# TNF measurement uses sandwich ELISA method. […] Again, plate was washed, and avidin/biotin was added for measuring the absorbance. TNF-α level of each sample was quantified using the standard graph calculated from the absorbance of standard solution.
# PBMC-derived monocytes were stimulated with endotoxin LPS (10 ng/ml) for 2 hrs, starved for 1 hr using OPTI-MEM, and then 4 uM of FITC, FITC-TAT, PEP 1-FITC and FITC-PEP 1 were treated for 2 hrs. After incubation, TNF-α level was measured with cell culture medium using ELISA.
Substance,TNF-α level compared to control group treated only with LPS (TNF-α [1]),TNF-α inhibiting effect compared to the control group treated with only LPS (TNF-α [2]),other results
ALLTSRLR (listed as Homo sapiens) [SEQ ID NO: 107],reduce the TNF- α level,–,–
ARPALLTSRL (listed as Homo sapiens) [SEQ ID NO: 113],–,showed TNF-α inhibiting effect,expression level of TNF-α compared to group treated with LPS and estrogen (TNF-α [1]): reduce the expression level of TNF-α
ARPALLTSRLR (listed as Homo sapiens) [SEQ ID NO: 112],–,showed TNF-α inhibiting effect,expression level of TNF-α compared to group treated with LPS and estrogen (TNF-α [1]): reduce the expression level of TNF-α
EARPALLTSRLRFIP (listed as Homo sapiens) [SEQ ID NO: 78],reduce the TNF- α level,–,–
EARPALLTSRLRFIPKPDGLRPIVNM (listed as Homo sapiens) [SEQ ID NO: 73],reduce the TNF- α level,showed TNF-α inhibiting effect,TNF-α inhibiting effect compared to the group treated with LPS and estrogen (TNF-α [2]): showed TNF-α inhibiting effect
EARPALLTSRLRFIPKPDGLRPIVNMDY (listed as Homo sapiens) [SEQ ID NO: 75],reduce the TNF- α level,–,–
EVRQHREARPALLTSRLRFIPK (listed as Homo sapiens) [SEQ ID NO: 7],reduce the TNF- α level,–,–
EVRQHREARPALLTSRLRFIPKP (listed as Homo sapiens) [SEQ ID NO: 41],–,–,expression level of TNF-α compared to group treated with LPS and estrogen (TNF-α [1]): reduce the expression level of TNF-α
FIP [SEQ ID NO: 179],reduce the TNF- α level,–,–
Fluorescein Isothiocyanate [FITC],–,–,TNF-α level (TNF-α [3]): 6.2 ng/mL
HREARPALLTSRLRFIPK (listed as Homo sapiens) [SEQ ID NO: 3],–,–,expression level of TNF-α compared to group treated with LPS and estrogen (TNF-α [1]): reduce the expression level of TNF-α
HREARPALLTSRLRFIPKPDGL (listed as Homo sapiens) [SEQ ID NO: 30],–,–,expression level of TNF-α compared to group treated with LPS and estrogen (TNF-α [1]): reduce the expression level of TNF-α
LTSR (listed as Homo sapiens) [SEQ ID NO: 109],reduce the TNF- α level,showed TNF-α inhibiting effect,TNF-α inhibiting effect compared to the group treated with LPS and estrogen (TNF-α [2]): showed TNF-α inhibiting effect
QHREARPALLTSRLRFIPKPDGLR (listed as Homo sapiens) [SEQ ID NO: 38],reduce the TNF- α level,showed TNF-α inhibiting effect,–
REARPALLTSRLRFIPK (listed as Homo sapiens) [SEQ ID NO: 2],–,–,expression level of TNF-α compared to group treated with LPS and estrogen (TNF-α [1]): reduce the expression level of TNF-α
RQHREARPALLTSRLRFIPK (listed as Homo sapiens) [SEQ ID NO: 5],reduce the TNF- α level,–,–
TSRLRFIP (listed as Homo sapiens) [SEQ ID NO: 159],–,showed TNF-α inhibiting effect,–
TSRLRFIPK (listed as Homo sapiens) [SEQ ID NO: 97],–,showed TNF-α inhibiting effect,TNF-α inhibiting effect compared to the group treated with LPS and estrogen (TNF-α [2]): showed TNF-α inhibiting effect
VRQHREARPALLTSRLRFIPKPD (listed as Homo sapiens) [SEQ ID NO: 33],–,showed TNF-α inhibiting effect,TNF-α inhibiting effect compared to the group treated with LPS and estrogen (TNF-α [2]): showed TNF-α inhibiting effect
VRQHREARPALLTSRLRFIPKPDG (listed as Homo sapiens) [SEQ ID NO: 34],–,showed TNF-α inhibiting effect,TNF-α inhibiting effect compared to the group treated with LPS and estrogen (TNF-α [2]): showed TNF-α inhibiting effect
VRQHREARPALLTSRLRFIPKPDGL (listed as Homo sapiens) [SEQ ID NO: 35],–,showed TNF-α inhibiting effect,–
VRQHREARPALLTSRLRFIPKPDGLR (listed as Homo sapiens) [SEQ ID NO: 36],reduce the TNF- α level,showed TNF-α inhibiting effect,–
